The conditions of series [1]: commonly used anionic surfactants; no source or concentration printed; cited from earlier work.
The nature of series [2]: Krafft temperature determination in distilled water (water bath, dissolution and frothing on shaking). The series is classed as physicochemical. The following applies: aqueous solution in distilled water: 0.012% ceteth-10 phosphate, 0.017% dicetyl phosphate, 0.014% sodium cetostearyl sulfate. The protocol:
0.0012 grams of ceteth-10 phosphate (Moravek Lot 671-144-000-A-20190821-JHO) was weighed into a 20 mL glass scintillation vial. 10.0113 grams of distilled water was added to the scintillation vial and the vial was tightly capped and placed in a water bath. […] The surfactant remained as waxy particles sedimented on the bottom of the vial. After equilibration at 53.0° C. for 435 minutes, ceteth-10 phosphate had dissolved and the sample frothed when shaken. The Krafft temperature of a 0.012% ceteth-10 phosphate aqueous solution was determined to be 53.0° C.
0.0019 grams of dicetyl phosphate (Sigma dihexadecyl phosphate lot STBH2863) was weighed into a 20 mL glass scintillation vial. 11.2262 grams of distilled water was added to the scintillation vial and the vial was tightly capped and placed in a water bath. […] After equilibration at 58.0° C. for 450 minutes, dicetyl phosphate had dissolved and the sample frothed when shaken. The Krafft temperature of a 0.017% dicetyl phosphate aqueous solution was determined to be 58.0° C. 0.0024 grams of sodium cetostearyl sulfate (BASF Lanette E Granules Lot 0021826181) was weighed into a 20 mL glass scintillation vial. 17.0763 grams of distilled water was added to the scintillation vial and the vial was tightly capped and placed in a water bath. […] The Krafft temperature of a 0.014% sodium cetostearyl sulfate aqueous solution was determined to be 41.0° C.

We go through 16 compounds from patent US20230134782A1, “TREATMENT OF SKIN CONDITIONS USING HIGH KRAFFT TEMPERATURE ANIONIC SURFACTANTS” (ARCUTIS BIOTHERAPEUTICS, INC., priority 2020, published 2023).

Read-outs that look alike come from different tables or passages of the source.

On to `CCCCCCCCCCCCOS(=O)(=O)O.N` [Ammonium lauryl sulfate], for which the “Krafft Temperature” value in series [1] was 10 °C.

`CCCCCCCCCCCCCCCCOS(=O)(=O)[O-].[Na+]` [Sodium cetyl sulfate]: in series [1], the “Krafft Temperature” value is 45.0 °C.

`CCCCCCCCCCOS(=O)(=O)[O-].[Na+]` [Sodium decyl sulfate]: the “Krafft Temperature” value in series [1] is 8.0 °C.

On to `CCCCCCCCCCS(=O)(=O)[O-].[Na+]` [Sodium decyl sulfonate], for which the “Krafft Temperature” value in series [1] was 22.5 °C.

`CCCCCCCCCCCCCCCCS(=O)(=O)[O-].[Na+]` [Sodium hexadecyl sulfonate]: the “Krafft Temperature” value in series [1] is 57.0 °C.

`CCCCCCCCCCCC(=O)[O-].[Na+]` [Sodium laurate]: the “Krafft Temperature” value in series [1] was 21.5 °C.

As for `CCCCCCCCCCCCOP(=O)([O-])[O-].[Na+].[Na+]` [Sodium lauryl phosphate], in series [1], the “Krafft Temperature” value was 31.5 °C.

For `CCCCCCCCCCCCOS(=O)(=O)[O-].[Na+]` [Sodium lauryl sulfate], the “Krafft Temperature” value in series [1] was 16.0 °C.

On to `CCCCCCCCCCCCCC(=O)[O-].[Na+]` [Sodium myristate], for which, in series [1], the “Krafft Temperature” value is 39 °C.

In the case of `CCCCCCCCCCCCCCOS(=O)(=O)[O-].[Na+]` [Sodium myristyl sulfate], the “Krafft Temperature” value in series [1] is 30.0 °C.

On to `CCCCCCCCCCCCCCS(=O)(=O)[O-].[Na+]` [Sodium myristyl sulfonate, Sodium myristyl* sulfonate], for which the “Krafft Temperature” value in series [1] is 48.0 °C.

On to `CCCCCCCCCCCCCCCC(=O)[O-].[Na+]` [Sodium palmitate], for which the “Krafft Temperature” value in series [1] is 69 °C.

In the case of `CCCCCCCCCCCCCCCCCC(=O)[O-].[Na+]` [Sodium stearate], in series [1], the “Krafft Temperature” value is 71 °C.

`CCCCCCCCCCCCCCCCCCOS(=O)(=O)[O-].[Na+]` [Sodium stearyl sulfate]: the “Krafft Temperature” value in series [1] is 56.0 °C.

In the case of Sodium laureth sulfate, the “Krafft Temperature” value in series [1] was <0 °C.

For the compound “ceteth-10 phosphate [Ceteth - 10 phosphate]”, the “Krafft Temperature” value in series [2] and in series [2] (listed as ceteth-10 phosphate) was 53 °C in each case.
